Assay results reported in US11027022B2, “Conjugates and conjugating reagents” (priority 2016, dated 2021).

System: Karpas-299 cells (T-anaplastic large cell lymphoma, ALCL)
Assay: Karpas-299 mouse xenograft study
Type: in vivo, CB17-SCID mice
Details: single i.v. injection, 1 mg/kg, groups of eight mice
Description: Healthy female CB17-SCID mice (CBySmn.CB17-Prkdcscida, Charles River Laboratories) with an average body weight of 17.5 g were used for cell inoculation (Day 0). 24 to 72 h prior to tumour cell injection, the mice were […] (1.44 Gy, ^60Co). The animals were maintained in SPF health status according to the FELASA guidelines in housing rooms under controlled environmental conditions.
Tumours were induced by subcutaneous injection of 10^7 Karpas-299 cells (T-anaplastic large cell lymphoma, ALCL) in 200 μL of RPMI 1640 into the right flank. Tumours were measured twice a week with callipers, and the volume was estimated using the formula: […]
Fourteen days after tumour implantation (Day 14), the animals were randomised into groups of eight mice using Vivo Manager® software (233 mm^3 mean tumour volume) and treatment was initiated. The animals from the vehicle group received a single intravenous (i.v.) injection of PBS. The treated groups were dosed with a single i.v. injection of ADC at either 0.5 mg/kg or 1 mg/kg.
Treatment tolerability was assessed by bi-weekly body weight measurement and daily observation for clinical signs of treatment-related side effects. Mice were euthanized when a humane endpoint was reached (e.g. 1,600 mm^3 tumour volume) or after a maximum of 6 weeks post-dosing.

Question: With “Adcetris®: commercially-available Adcetris® conjugate, comparative to the brentuximab-drug conjugates [reference compound]” as the substance, how does the “complete responses (total reduction of tumour volume to zero)” value read?
Answer: 2 animals

Question: And the “mean tumour volume (result in words)” value?
Answer: increase in mean tumour volume
